Test results from patent publication US20250084092A1, “ANNULATED PYRIDAZINE COMPOUND” (Nico Therapeutics, Inc., priority 2021, published 2025).
pIC50: −log10 of the molar value. Structures can show the parent of a compound that is named as a salt.

Target: T1, NLRP3 inflammasome (Homo sapiens, UniProt Q96P20)
T1 construct: endogenous in cells; host or cells: THP-1 cells (PMA-differentiated, stimulated with LPS and ATP)
Assay: THP-1 IL-1β production inhibition test
Format: cell-based
Conditions: PMA-treated THP-1 cells, LPS 50 ng/mL + ATP 5 mM, 2 hours, IL-1β in supernatant by ELISA
Protocol: PMA (phorbol myristate acetate, SIGMA, P1585) was added to THP-1 cells in an amount of 50 ng/mL to culture the cells for 2 days at 37° C. […] LPS (Lipopolysaccharide, SIMGA, L2880) and ATP (Adenosine triphosphate, SIGMA, A2383) were added so that final concentrations become 50 ng/mL and 5 mM, respectively, followed by culturing at 37° C. for 2 hours. The supernatants were collected to measure the concentrations of IL-1β by ELISA (DuoSet ELISA human IL-1β, R&D Systems, DY201). The IL-1β concentrations were plotted against log concentrations of test compounds, and an IC50 value was calculated by sigmoid Emax model nonlinear regression analysis.

T1 sequence (Q96P20 whole entry): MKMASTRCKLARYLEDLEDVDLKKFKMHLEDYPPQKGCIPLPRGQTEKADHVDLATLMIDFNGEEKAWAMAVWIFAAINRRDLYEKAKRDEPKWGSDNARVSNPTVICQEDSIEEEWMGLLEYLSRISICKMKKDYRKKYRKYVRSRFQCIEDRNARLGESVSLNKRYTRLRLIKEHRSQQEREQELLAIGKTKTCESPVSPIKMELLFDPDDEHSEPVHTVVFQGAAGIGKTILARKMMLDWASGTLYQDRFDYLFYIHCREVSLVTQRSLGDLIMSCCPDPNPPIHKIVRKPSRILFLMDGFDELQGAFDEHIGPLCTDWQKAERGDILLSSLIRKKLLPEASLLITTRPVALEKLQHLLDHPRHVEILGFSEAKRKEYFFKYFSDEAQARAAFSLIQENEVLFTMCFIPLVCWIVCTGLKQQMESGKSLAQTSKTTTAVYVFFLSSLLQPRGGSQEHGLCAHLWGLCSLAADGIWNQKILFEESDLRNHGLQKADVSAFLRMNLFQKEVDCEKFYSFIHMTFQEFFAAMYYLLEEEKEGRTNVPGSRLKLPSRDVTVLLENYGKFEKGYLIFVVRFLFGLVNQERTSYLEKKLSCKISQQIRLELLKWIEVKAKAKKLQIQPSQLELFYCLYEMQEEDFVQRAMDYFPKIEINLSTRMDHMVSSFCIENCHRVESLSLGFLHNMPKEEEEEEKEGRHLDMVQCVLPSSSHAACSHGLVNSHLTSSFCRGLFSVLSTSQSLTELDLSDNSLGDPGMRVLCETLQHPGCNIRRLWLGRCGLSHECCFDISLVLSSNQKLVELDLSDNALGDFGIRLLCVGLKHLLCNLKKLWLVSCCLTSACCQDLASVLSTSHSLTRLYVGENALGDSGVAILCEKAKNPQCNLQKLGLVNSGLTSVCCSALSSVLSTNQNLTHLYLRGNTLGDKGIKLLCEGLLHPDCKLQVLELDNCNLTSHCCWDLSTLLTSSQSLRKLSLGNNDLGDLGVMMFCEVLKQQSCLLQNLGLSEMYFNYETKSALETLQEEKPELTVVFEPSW

pIC50 | Structure (SMILES)
8.32 | Oc1cc(OC(F)(F)F)ccc1-c1nnc(N[C@@H]2CCC[C@H](O)C2)c2c1CCOC2 [Example 106]
7.27 | COc1ccc(-c2nnc(N[C@@H]3CCOC[C@H]3O)c3c2CCCC3)c(O)c1 [Example 38]
7.57 | Oc1cc(C(F)(F)F)ccc1-c1nnc(N[C@@H]2CCCC[C@H]2O)c2c1COCCC2 [108(1)]
8.29 | Oc1cc(C(F)(F)F)ccc1-c1nnc(N[C@@H]2CCCC[C@H]2O)c2c1CSCC2 [Example 102]
7.74 | Oc1cc(OC(F)(F)F)ccc1-c1nnc(N[C@@H]2CCOC[C@H]2O)c2c1CCCC2 [Example 37]
8.54 | Oc1cc(OC(F)(F)F)ccc1-c1nnc(N[C@@H]2CCCC[C@H]2O)c2c1CCOC2 [Example 135, 2-(4-{[(1R,2R)-2-hydroxycyclohexyl]amino}-7,8-dihydro-5H-pyrano[3,4-d]pyridazin-1-yl)-5-(trifluoromethoxy)phenol monohydrochloride]
7.96 | Cc1ccc(-c2nnc(N[C@@H]3CCOC[C@H]3O)c3c2CCCCC3)c(O)c1 [Example 46]
8.44 | Oc1cc(C(F)(F)F)ccc1-c1nnc(N[C@@H]2CCCC[C@H]2O)c2c1CCC1(COC1)C2 [Example 107]
7.48 | CC(=O)NCCCCOc1nnc(-c2ccc(C(F)(F)F)cc2O)c2ccccc12 [Example 81, N-[4-({4-[2-hydroxy-4-(trifluoromethyl)phenyl]phthalazin-1-yl}oxy)butyl]acetamide]
7.33 | CC(=O)N1CCc2c(-c3ccc(C(F)(F)F)cc3O)nnc(N[C@@H]3CCCC[C@H]3O)c2C1 [Example 92, 1-[4-{[(1R,2R)-2-hydroxycyclohexyl]amino}-1-[2-hydroxy-4-(trifluoromethyl)phenyl]-7,8-dihydropyrido[3,4-d]pyridazin-6(5H)-yl]ethan-1-one]
7.96 | Oc1cc(C(F)F)ccc1-c1nnc(N[C@@H]2CCCC[C@H]2O)c2c1COC2 [Example 115]
7.02 | Oc1cc(C(F)(F)F)ccc1-c1nnc(N[C@@H]2CCCC[C@H]2O)c2c1CNC2 [Example 98, 2-(4-{[(1R,2R)-2-hydroxycyclohexyl]amino}-6,7-dihydro-5H-pyrrolo[3,4-d]pyridazin-1-yl)-5-(trifluoromethyl)phenol]
7.66 | C[C@@H](O)CCc1nnc(-c2ccc(C(F)(F)F)cc2O)c2c1CCCC2 [Example 20]
6.74 | Oc1cc(C(F)(F)F)ccc1-c1nnc(N[C@H]2CCCC[C@@H]2O)c2c1CCOC2 [66(2)]
7.70 | C[C@@H](O)CNc1nnc(-c2ccc(C(F)(F)F)cc2O)c2c1CCCC2 [Example 17]
8.92 | CN1CCC[C@@H](Nc2nnc(-c3ccc(C(F)F)cc3O)c3c2COCC3)C1 [Example 113]
8.39 | Oc1cc(C2CC2)ccc1-c1nnc(N[C@@H]2CCCC[C@H]2O)c2c1CCOC2 [52(1)]
7.72 | Oc1cc(Cl)ccc1-c1nnc(N[C@@H]2CCOC[C@H]2O)c2c1CCCC2 [Example 39]
7.33 | CN1CCC[C@@H](Nc2nnc(-c3ccc(C(F)(F)F)cc3O)c3c2CSC3(C)C)C1 [Example 123]
7.13 | C[C@@H](O)CNc1nnc(-c2ccc(C(F)(F)F)cc2O)c2c1[C@H]1CC[C@@H]2CC1 [Example 24]

pIC50 | Structure (SMILES)
7.89 | CN1CCC[C@@H](Oc2nnc(-c3ccc(C(F)(F)F)cc3O)c3ccccc23)C1 [Example 67]
8.07 | Oc1cc(C(F)(F)F)ccc1-c1nnc(N[C@@H]2CCOC[C@H]2O)c2c1COCC2 [101(2)]
5.85 | C[C@@H](O)CNc1nnc(-c2ccc(C(F)(F)F)cc2C(F)(F)F)c2c1CN(C)CC2 [Example 74]
7.40 | C[C@]1(O)C[C@@H](Nc2nnc(-c3ccc(C(F)(F)F)cc3O)c3c2CCC3)C1 [Example 59]
7.82 | Oc1cc(C(F)F)ccc1-c1nnc(N[C@@H]2CCC[C@H](O)C2)c2c1COC2 [Example 114, 5-(difluoromethyl)-2-(4-{[(1R,3S)-3-hydroxycyclohexyl]amino}-5,7-dihydrofuro[3,4-d]pyridazin-1-yl)phenol]
7.62 | O=S1(=O)CCC(Oc2nnc(-c3ccc(C(F)(F)F)cc3O)c3ccccc23)CC1 [Example 10]
7.21 | N[C@@H]1CCCC[C@H]1Nc1nnc(-c2ccc(C(F)(F)F)cc2O)c2c1CCOC2 [Example 95, 2-(1-{[(1R,2R)-2-aminocyclohexyl]amino}-7,8-dihydro-5H-pyrano[3,4-d]pyridazin-4-yl)-5-(trifluoromethyl)phenol]
8.15 | Oc1cc(C(F)(F)F)ccc1-c1nnc(N[C@@H]2CCCN(C3CC3)C2)c2c1CSC2 [Example 126, 2-(4-{[(3R)-1-cyclopropylpiperidin-3-yl]amino}-5,7-dihydrothieno[3,4-d]pyridazin-1-yl)-5-(trifluoromethyl)phenol]
8.06 | Oc1cc(OC(F)(F)F)ccc1-c1nnc(N[C@@H]2CCCC[C@H]2O)c2c1CCCCC2 [Example 43]
7.77 | CC(=O)N[C@@H]1CCCC[C@H]1Nc1nnc(-c2ccc(C(F)(F)F)cc2O)c2ccccc12 [Example 23]
7.40 | Oc1cc(C(F)(F)F)ccc1-c1nnc(N[C@@H]2CCCC[C@H]2O)c2c1CCCO2 [Example 41]
7.85 | Oc1cc(OC(F)(F)F)ccc1-c1nnc(N[C@@H]2CCOC[C@H]2O)c2c1CCCCC2 [Example 45]
8.52 | Oc1cc(C(F)(F)F)ccc1-c1nnc(N[C@@H]2CCCC[C@H]2O)c2c1CCCOC2 [108(2)]
7.66 | C[C@]1(O)C[C@@H](Nc2nnc(-c3ccc(Cl)cc3O)c3c2CCCC3)C1 [Example 30]
6.82 | Oc1cc(C(F)(F)F)ccc1-c1nnc(N[C@@H]2CCCN(C3CCC3)C2)c2c1CCCC2 [Example 71]
5.89 | C[C@@H](O)CNc1nnc(-c2ccc(C(F)(F)F)cc2C(F)(F)F)c2c1CN(Cc1ccccc1)CC2 [Example 9]
7.02 | CC1(C)SCc2c(N[C@@H]3CCCN(CC(F)F)C3)nnc(-c3ccc(C(F)(F)F)cc3O)c21 [Example 132, 2-(4-{[(3R)-1-(2,2-difluoroethyl)piperidin-3-yl]amino}-7,7-dimethyl-5,7-dihydrothieno[3,4-d]pyridazin-1-yl)-5-(trifluoromethyl)phenol]
8.41 | Oc1cc(C(F)(F)F)ccc1-c1nnc(N[C@@H]2CCCC[C@H]2O)c2c1CCCCC2 [Example 34]
7.70 | C[C@@H](O)CNc1nnc(-c2ccc(C(F)(F)F)cc2O)c2cnccc12 [16(2)]
7.89 | Oc1cc(C2CC2)ccc1-c1nnc(N[C@@H]2CCCC[C@H]2O)c2c1CCCC2 [Example 51]

pIC50 | Structure (SMILES)
8.72 | C[C@@H](O)CNc1nnc(-c2ccc(C(F)(F)F)cc2O)c2ccncc12 [16(1)]
7.09 | Oc1cc(C(F)(F)F)ccc1-c1nnc(N[C@@H]2CCCC[C@H]2O)c2c1CCC2 [Example 19]
8.39 | Oc1cc(OC(F)(F)F)ccc1-c1nnc(N[C@@H]2CCCC[C@H]2O)c2c1CCCC2 [Example 27]
7.09 | CC(C)(O)CNc1nnc(-c2ccc(C(F)(F)F)cc2O)c2c1CCC2 [Example 21]
8.15 | Oc1cc(OC(F)(F)F)ccc1-c1nnc(N[C@@H]2CCCC[C@H]2O)c2c1COCC2 [3(2), 2-(1-{[(1R,2R)-2-hydroxycyclohexyl]amino}-7,8-dihydro-5H-pyrano[3,4-d]pyridazin-4-yl)-5-(trifluoromethoxy)phenol]
7.74 | C[C@]1(O)C[C@@H](Nc2nnc(-c3ccc(C(F)(F)F)cc3O)c3c2CCCC3)C1 [Example 29]
7.92 | Oc1cc(C(F)(F)F)ccc1-c1nnc(N[C@@H]2CCCC[C@H]2O)c2c1CCNC2 [Example 90, 2-(4-{[(1R,2R)-2-hydroxycyclohexyl]amino}-5,6,7,8-tetrahydropyrido[3,4-d]pyridazin-1-yl)-5-(trifluoromethyl)phenol dihydrochloride]
8.18 | COc1ccc(-c2nnc(N[C@@H]3CCCC[C@H]3O)c3c2CCOC3)c(O)c1 [Example 69]
7.35 | Oc1cc(C(F)(F)F)ccc1-c1nnc(N[C@@H]2CCCNC2)c2c1CCCC2 [Example 96, 2-(4-{[(3R)-piperidin-3-yl]amino}-5,6,7,8-tetrahydrophthalazin-1-yl)-5-(trifluoromethyl)phenol]
8.55 | Oc1cc(C(F)(F)F)ccc1-c1nnc(N[C@@H]2CCCC[C@H]2O)c2ccccc12 [Example 15]
7.85 | COc1ccc(-c2nnc(N[C@@H]3CCCC[C@H]3O)c3c2CCCC3)c(O)c1 [Example 28]
7.68 | C[C@@]1(O)CCCC[C@H]1Nc1nnc(-c2ccc(OC(F)(F)F)cc2O)c2c1CCCC2 [Example 54]
7.51 | C[C@@]1(O)CCCC[C@H]1Nc1nnc(-c2ccc(OC(F)F)cc2O)c2c1CCCC2 [Example 89]
8.09 | O=C1NCC[C@@H]1Nc1nnc(-c2ccc(C(F)(F)F)cc2O)c2c1CCCC2 [Example 50]
6.89 | CC(=O)N1Cc2c(N[C@@H]3CCCC[C@H]3O)nnc(-c3ccc(C(F)(F)F)cc3O)c2C1 [Example 117, 1-(1-{[(1R,2R)-2-hydroxycyclohexyl]amino}-4-[2-hydroxy-4-(trifluoromethyl)phenyl]-5,7-dihydro-6H-pyrrolo[3,4-d]pyridazin-6-yl)ethan-1-one]
8.15 | C[C@]1(O)C[C@@H](Nc2nnc(-c3ccc(C(F)(F)F)cc3O)c3c2COCC3)C1 [56(1)]
7.80 | Oc1cc(C(F)(F)F)ccc1-c1nnc(N[C@@H]2CCOC[C@H]2O)c2c1CCCC2 [Example 35]
8.48 | CN1CCC[C@@H](Nc2nnc(-c3ccc(OC(F)(F)F)cc3O)c3c2COCC3)C1 [Example 128, 2-(4-{[(3R)-1-methylpiperidin-3-yl]amino}-7,8-dihydro-5H-pyrano[3,4-d]pyridazin-1-yl)-5-(trifluoromethoxy)phenol]
